Laboratory results from patent US20130158070A1, “CONJUGATES OF POLYUNSATURATED FATTY ACIDS AND AMINE-CONTAINING COMPOUNDS AND USES THEREOF” (priority 2010, published 2013).

Tests used:
[1] = system: collagen induced arthritis; assay: Collagen induced arthritis (CIA), PGE2 production and TNFα levels; format: in vivo, black/57 mice; conditions: 250 mg/(kg/day) orally, 21 days, compared to Ibuprofen 500 mg/(kg/day)
Method: Male black/57 mice, age 8-10 weeks, were used in in vivo study of PGE2 production and TNFα levels in collagen induced arthritis (CIA) model.
Bovine CII (type II collagen CII, Sigma, St. Louis, Mo., USA) was dissolved in 0.1 M acetic acid overnight at 4° C. and was thereafter emulsified in an equal volume of complete Freund's adjuvant (Sigma). The mice were immunized intradermally at the base of the tail with 100 μl of emulsion containing 100 μg of CII. On day 21, mice were boosted intraperitoneally with 100 μg CII dissolved in phosphate buffered saline (PBS).
The tested conjugate or Ibuprofen (Sigma, Israel) were dissolved in 80% Cremophor EL:saline 80%:20%, respectively.
Mice were randomly selected and assigned to one of the following groups: tested conjugate (250 mg/(kg/day); n=4), Iboprofen (500 mg/ (kg/day); n=4) or vehicle (n=4). The tested conjugate and Ibuprofen were administered orally. Treatment was given daily for a period of 21 days.
Joint tissues were prepared as previously described for measuring the production of PGE2 and cytokines. […] PGE2 concentration was measured with a commercial radio immunoassay (RIA) kit (Amersham, UK) according to the manufacturer's instructions. […] Results were expressed as pg/ml of serum or supernatant from joint homogenate.

[2] = system: TNBS-induced ulcerative colitis; assay: TNBS-induced colitis (ulcerative colitis) in rats; format: in vivo
Method: Exemplary conjugates were tested for the effect on inflammatory bowel disease IBD (ulcerative colitis) in rats.
Briefly, ulcerative colitis was induced by tri-nitrobenzene sulfunic acid (TNBS) as described in the literature. Rats were divided into 4 groups, (−) sham (healthy), (+) control ulcerative colitis (UC, not treated), UC treated with the tested conjugate (25 mg/kg), and UC treated with 5-amino salicylic acid (5-ASA 25 mg/kg). The tested conjugate and 5-ASA were administered rectally during all the period of the experiment. At the end of the experiment animals were sacrificed and the colon was isolated to test the severity of the inflammation. The severity of the inflammation was tested by measurement of the myeloperoxidase activity (MPO activity) in the inflamed area of the colon.

[3] = Acute intraperitoneal (IP) toxicity in the mouse; conditions: both sexes, in vivo, single IP injection, male and female ICR mice, read-out: MTD (Maximum Tolerated Dose)
Method: The objective of this study was to determine the MTD (Maximum Tolerated Dose) and/or assess the potential toxic effects in terms of the MFD (Maximum Feasible Dose) following an acute intraperitoneal (IP) injection of the Test Item MWL002 (Batch No.: 201109) to male and female ICR mice, in consideration of its intended use as an anti-inflammatory and pain relief agent.
MWL002 (Batch No.: 201109) was injected at two dose levels of 1000 (corresponding to the MFD) and 200 mg/kg to two groups consisting of three male and three female ICR mice per group, by a single intraperitoneal (IP) injection. An additional equally-sized group was injected with vehicle and served as the Control group. Dosing was sequential using three male and three female mice per step at 14 days interval. The Test Item or Vehicle Control Dosing Solutions were freshly prepared by the Testing Facility on each day of dosing, by diluting the Test Item or Vehicle Control with Physiological Saline according to the appropriate dose level and a constant volume dosage of 4 ml/kg.

[4] = system: collagen induced arthritis; assay: Collagen induced arthritis (CIA), arthritis score, paw thickness, body weight; format: in vivo, DBA/1J mice
Method: In a different study, 34 male 8-10 weeks old DBA/1J mice were used. Animals were fed ad libitum a commercial rodent diet (Teklad Certified Global 18% Protein Diet cat #: 106S8216). Animals had free access to acidified drinking water (pH between 2.5 and 3.0) obtained from the municipality supply.
The effect of MWL-002 (conjugate of DHA and taurine) was tested and compared to that of Ibuprofen. Cremophore EL was used as a vehicle.
On day 0, each mouse was anesthetized by inhalation of 3% isofluorane and injected intradermally at the base of the tail with 0.1 ml of emulsion containing 100 μg collagen, using a 1-ml glass syringe with a 26-guade needle. Booster injection was performed at day 15 to the same injection site.
The tested materials were administered 3 times a week, via IP for a total of 12 administrations starting on day 1.
Observations for clinical score were performed twice weekly until study termination.
The severity of arthritis was scored based on the level of inflammation in each of the four paws and recorded as one of five grades according to the following:
Hind paw thickness (edema) was measured by digital caliper once a week until Day 14 and thereafter twice weekly and prior to study termination. Two cross sectional areas were marked, one on the paw and the other at the ankle (tarsal joint). Two measurements were made on each section, perpendicular to each other. The results obtained were calculated as the average areas of both hind limbs per animal.
Body weight was measured prior to dosing, during the study twice a week and prior to study termination.

Row | Structure (SMILES) | Prostaglandin E2 levels in the joints [1] | TNF-α levels [1] | body weight ([2]; UC rats, throughout assay period) | MPO activity (severity index) ([2]; rectal, 50 mg/kg as printed, compared to 5-ASA, inflamed colon) | colon morphology and inflammation signs (images) ([2]; ulcerated colon segment, compared to non-treated or 5-ASA treated) | MTD [3] [mg/kg] | day from which arthritis score (AS) increases ([4]; 50 mg/kg IP, 3 times a week, 12 administrations) [days] | CIA development ([4]; 50 mg/kg IP, overall conclusion) | body weight ([4]; 50 mg/kg IP, from day 37, in comparison to the other 3 groups) | arthritis thickness index (ATI) increase ([4]; from day 0 to day 70, 50 mg/kg IP, groups 1M DHA-Tau, 2M DHA, 4M Ibuprofen) [%] | ATI course ([4]; from day 43 until end of study, FIG. 8B)
1 | CCC=CCC=CCC=CCC=CCC=CCC=CCCC(=O)N1CC(O)CC1C(=O)O (centres unmarked) [MWL001] | significant decrease | significant decrease | no decrease | significant decrease | normal clear anatomic morphology and a significant decrease in inflammation signs |  |  |  |  |  | 
2 | CC/C=C\C/C=C\C/C=C\C/C=C\C/C=C\C/C=C\CCC(=O)NCCS(=O)(=O)O [MWL002, N-docosa-4,7,10,13,16,19-hexaenoyl-taurine] |  |  |  |  |  | 200 to 1000 | 57 | inhibits CIA development robustly | increase the body weight in a major percent | 150 | almost no changes
